Experimental data as given in patent US9150592B2, “Heterocyclic nuclear hormone receptor modulators” (AbbVie Inc., priority 2012, dated 2015).

Experiments:
[1] = test system: IL-6 in A549 cells stimulated with IL-1β; experiment: A549 Cell Assay to Measure Inflammation Markers (inhibition of IL-1β-induced IL-6); format: cell-based; conditions: intrinsic activity, Emax class ranges; for Emax: Homo sapiens, A549, A549 Cell Assay to Measure Inflammation Markers
Description: A549 Cell Assay to Measure Inflammation Markers
Further dilution (1:250) of compound was made into assay medium and 50 μL/well diluted drug or DMSO/media control was applied to cells. After a 1 h pre-incubation in a temperature, CO2, and humidity controlled incubator, set to 37° C., 50 μL/well of 4 ng/mL IL-1β diluted in assay media, was applied to cultures. Assay plates, with a final volume of 200 μL/well and final concentrations of 0.1% DMSO and 1 ng/mL IL-1β were returned to incubator for a […] incubation period. Next, plates were spun at 183 g (1000 rpm in Beckman/Coulter Allegra 6KR centrifuge) for 10 min. Cell-free supernatant (150 μL/well) was collected and IL-6 was measured by MSD kit, following protocol of manufacturer, and using MSD SECTOR Imager 6000 instrument. […] Results were represented as IC50 and Emax values.

[2] = molecular target: T1, Glucocorticoid Receptor (GR) (Homo sapiens, UniProt P04150); experiment: GR Fluorescence Polarization Assay (PolarScreen Glucocorticoid Receptor Competitor Assay, Red); conditions: IC50 class ranges, read-out: GR binding
T1 construct: purchased Invitrogen P2893
T1 sequence (P04150 1-777): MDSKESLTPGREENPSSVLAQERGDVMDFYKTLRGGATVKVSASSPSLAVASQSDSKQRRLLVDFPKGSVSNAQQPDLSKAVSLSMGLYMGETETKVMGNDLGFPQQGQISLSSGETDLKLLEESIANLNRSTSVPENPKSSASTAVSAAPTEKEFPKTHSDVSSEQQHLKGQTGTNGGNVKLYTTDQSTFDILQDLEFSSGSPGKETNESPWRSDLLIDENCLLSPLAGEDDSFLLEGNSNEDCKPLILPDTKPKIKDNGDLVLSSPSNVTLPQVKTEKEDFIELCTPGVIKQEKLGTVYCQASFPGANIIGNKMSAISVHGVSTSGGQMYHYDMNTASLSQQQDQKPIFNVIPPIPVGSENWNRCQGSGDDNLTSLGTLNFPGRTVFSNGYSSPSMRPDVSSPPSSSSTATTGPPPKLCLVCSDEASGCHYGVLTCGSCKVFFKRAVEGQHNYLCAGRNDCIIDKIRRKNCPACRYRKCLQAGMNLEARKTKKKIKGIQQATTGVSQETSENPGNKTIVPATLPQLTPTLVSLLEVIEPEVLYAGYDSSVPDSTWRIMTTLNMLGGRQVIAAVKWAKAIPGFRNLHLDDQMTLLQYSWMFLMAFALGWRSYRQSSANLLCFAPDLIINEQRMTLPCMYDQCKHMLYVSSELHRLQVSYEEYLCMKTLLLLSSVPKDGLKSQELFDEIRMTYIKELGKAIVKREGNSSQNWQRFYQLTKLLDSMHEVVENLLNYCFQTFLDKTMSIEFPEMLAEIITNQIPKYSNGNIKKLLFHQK
Outline: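 Competitive fluorescence-polarization assay using a red fluorescent glucocorticoid tracer with human GR in kit buffer. Compounds serially diluted 1:4 in DMSO, incubated with tracer and GR overnight at 4° C, then polarization read.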

SMILES | Emax [1] [%] | IC50 [2] [nM] | A549 Emax ([1]; A549 Cell Assay to Measure Inflammation Markers)
Cc1cc(Cl)ccc1[C@H]1S[C@@H](CCO)CNc2c1c(-c1ccccn1)nn2C (single isomer, unassigned) [M.10, 2-(4-(4-chloro-2-methylphenyl)-1-methyl-3-(pyridin-2-yl)-4,6,7,8-tetrahydro-1H-pyrazolo[3,4-e][1,4]thiazepin-6-yl)ethanol] | < 50 | 1000 to 10000 | –
Cn1nc(-c2nccs2)c2c1NCC(C)(C)SC2c1ccc(Cl)cc1Cl (centres unmarked) [D.17] | < 50 | 100 to 1000 | –
Cc1cc(C(=O)Nc2cccnc2C)ccc1C1SC(C)(C)CNc2c1c(C)nn2C (centres unmarked) [H.5] | < 50 | 1000 to 10000 | –
Cc1cc(Br)ccc1[C@H]1SC[C@H](C(N)=O)Nc2c1c(-c1ccccn1)nn2C (racemic) | < 50 | 100 to 1000 | –
Cc1cc(C(=O)Nc2cccnc2C)ccc1C1SCC(C)Nc2c1c(-c1ccccn1)nn2C (centres unmarked) [H.6] | > 70 | < 100 | –
Cc1nn(C)c2c1C(c1ccc(Cl)cc1Cl)SC(C)(C)C(=O)N2C (centres unmarked) | < 50 | 1000 to 10000 | –
Cn1nc(-c2ccccn2)c2c1NCCSC2c1ccc(Cl)cc1C(F)(F)F (centres unmarked) [D.3] | < 50 | < 100 | –
Cc1cc(Cl)ccc1[C@@H]1S[C@@H](CCO)[C@@H](C)Nc2c1c(C)nn2C (racemic) | > 70 | < 100 | –
CCn1nc(-c2ccccn2)c2c1NCCSC2c1ccc(C(=O)Nc2n[nH]cc2C#N)cc1C (centres unmarked) [S.8] | > 50 | < 100 | –
CC(C)Cc1nn(C)c2c1C(c1ccc(Cl)cc1Cl)SCCN2 (centres unmarked) [D.92] | < 50 | < 100 | –
CC(=O)N1CCC(C2SCCNc3c2c(-c2ccccn2)nn3C)CC1 (centres unmarked) | < 50 | > 10000 | –
Cc1cc(C#N)ccc1C1SCC(C)Nc2c1c(-c1ccccn1)nn2C (centres unmarked) [G.7] | > 70 | < 100 | –
CCn1nc(-c2ccccn2)c2c1NCCSC2c1ccc(C(=O)Nc2ccnn2C)cc1C (centres unmarked) [S.1, 4-(1-ethyl-3-(pyridin-2-yl)-4,6,7,8-tetrahydro-1H-pyrazolo[3,4-e][1,4]thiazepin-4-yl)-3-methyl-N-(1-methyl-1H-pyrazol-5-yl)benzamide] | > 70 | < 100 | –
Cn1nc([C@@H]2CCCN2)c2c1NCCSC2c1ccc(Cl)cc1Cl (mixture of isomers) | < 50 | > 10000 | –
Cc1cc(C(=O)Nc2cccnc2C)ccc1[C@@H]1SCCNc2c1c(-c1ccccn1)nn2C | – | < 100 | A (a compound with Emax>70%)
Cc1ccc(C#N)cc1C1SCCNc2c1c(-c1ccccn1)nn2C (centres unmarked) [G.1, 4-methyl-3-[1-methyl-3-(2-pyridyl)-4,6,7,8-tetrahydropyrazolo[3,4-e][1,4]thiazepin-4-yl]benzonitrile] | < 50 | 100 to 1000 | –
CCn1nc(-c2ccncn2)c2c1NCCSC2c1ccc(Br)cc1C (centres unmarked) [D.108] | > 50 | < 100 | –
Cn1nc(C2CC2)c2c1NCC(C)(C)SC2c1ccc(Cl)cc1Cl (centres unmarked) [D.74] | < 50 | < 100 | –
CCn1nc(-c2ccccn2)c2c1NCCCC2c1ccc(Br)cc1 (centres unmarked) | > 70 | < 100 | –
Cc1cc(-c2nn(C)c3c2C(c2ccc(Cl)cc2C)SCCN3)no1 (centres unmarked) [D.43] | < 50 | < 100 | –
Cc1cc(OCC#N)ccc1[C@@H]1SC[C@@H](C)Nc2c1c(-c1ccccn1)nn2C (single isomer, unassigned) [M.23, 2-(4-(1,7-dimethyl-3-(pyridin-2-yl)-4,6,7,8-tetrahydro-1H-pyrazolo[3,4-e][1,4]thiazepin-4-yl)-3-methylphenoxy)acetonitrile] | > 50 | < 100 | –
Cn1nc(-c2ccccn2)c2c1NCCSC2c1ccc(Cl)cc1CF (centres unmarked) [D.39] | > 60 | < 100 | –
Cc1cc(Br)ccc1C1SCC(C#N)Nc2c1c(-c1ccccn1)nn2C (racemic) | > 60 | < 100 | –

SMILES | Emax [1] [%] | IC50 [2] [nM] | A549 Emax ([1]; A549 Cell Assay to Measure Inflammation Markers)
Cc1ccc(C#N)cc1C1SC(C)(C)CNc2c1c(C1CC1)nn2C (centres unmarked) [G.5] | < 50 | 100 to 1000 | –
Cn1nc(-c2ccccn2)c2c1NCCSC2c1ccc(C(=O)Nc2cccnc2)cc1Cl (centres unmarked) [H.3] | < 50 | 100 to 1000 | –
Cn1nc(-c2ccccn2)c2c1NCCSC2c1ccncc1Cl (centres unmarked) [D.7] | < 50 | < 100 | –
Cc1cc(CCCO)ccc1[C@@H]1SC[C@@H](C)Nc2c1c(-c1ccccn1)nn2C (single isomer, unassigned) [M.51, 3-(4-(1,7-dimethyl-3-(pyridin-2-yl)-4,6,7,8-tetrahydro-1H-pyrazolo[3,4-e][1,4]thiazepin-4-yl)-3-methylphenyl)propan-1-ol] | < 50 | < 100 | –
Cc1cc(Cl)ccc1[C@H]1SC(C)(C)CNc2c1c(C)nn2C (single isomer, unassigned) [M.6] | < 50 | < 100 | –
Cc1cc(Cl)ccc1[C@H]1SC[C@H](C)Nc2c1c(-c1ccccn1)nn2C | < 50 | 1000 to 10000 | –
CCn1nc(-c2ccccn2)c2c1NCCSC2c1ccc(C(=O)Nc2cccnc2C)cc1C(F)(F)F (single isomer, unassigned) [M.68, 4-(1-ethyl-3-(pyridin-2-yl)-4,6,7,8-tetrahydro-1H-pyrazolo[3,4-e][1,4]thiazepin-4-yl)-N-(2-methylpyridin-3-yl)-3-(trifluoromethyl)benzamide] | > 70 | 1000 to 10000 | –
Cc1cc(C(N)=O)ccc1C1SC(C)(C)CNc2c1c(C)nn2C (centres unmarked) [I.4] | < 50 | 1000 to 10000 | –
CCn1nc(-c2ccccn2)c2c1NCCSC2c1ccc(C(=O)Nc2cccnc2C)cc1C (single isomer, unassigned) [M.62, 4-(1-ethyl-3-(pyridin-2-yl)-4,6,7,8-tetrahydro-1H-pyrazolo[3,4-e][1,4]thiazepin-4-yl)-3-methyl-N-(2-methylpyridin-3-yl)benzamide] | > 70 | < 100 | –
C=Cc1cc(Cl)ccc1C1SCCNc2c1c(-c1ccccn1)nn2C (centres unmarked) | > 60 | < 100 | –
Cc1ccc(C(=O)Nc2cccnc2C)cc1C1SCCNc2c1c(-c1ccccn1)nn2C (centres unmarked) [F.5] | < 50 | > 10000 | –
Cc1ccc(C2SCCNc3c2c(-c2ccccn2)nn3C)c(Cl)c1 (centres unmarked) | < 50 | < 100 | –
Cc1cccc(C2SCCNc3c2c(-c2ccccn2)nn3C)c1C (centres unmarked) [D.33] | < 50 | 100 to 1000 | –
COc1ccc(C2SCCNc3c2c(-c2ccccn2)nn3C)c(C)c1 (centres unmarked) [D.10] | < 50 | < 100 | –
Cc1nn(C)c2c1C(c1ccc(Br)cc1Cl)SC(C)(C)CN2 (centres unmarked) [D.60] | > 50 | < 100 | –
Cc1cc(Cl)ccc1C1SC(C)(C)CNc2c1c(C)nn2C1CCCC1 (centres unmarked) [D.70] | < 50 | 100 to 1000 | –
Cc1cc(C#N)ccc1C1SCCNc2c1c(-c1ccccn1)nn2C (single isomer, unassigned) [M.20, 3-methyl-4-(1-methyl-3-(pyridin-2-yl)-4,6,7,8-tetrahydro-1H-pyrazolo[3,4-e][1,4]thiazepin-4-yl)benzonitrile] | > 70 | < 100 | –
Cc1cc(C(=O)Nc2cccnc2C)ccc1[C@H]1CC[C@](O)(C(F)(F)F)Cc2c1c(-c1ccccn1)nn2C (racemic) | > 70 | < 100 | –
Cc1cc(F)ccc1C1SCCNc2c1c(-c1ccccn1)nn2C (centres unmarked) [D.11] | > 50 | < 100 | –
Cc1ccc(Cl)cc1C1SC(C)(C)CNc2c1c(C1CC1)nn2C (centres unmarked) [D.46] | < 50 | < 100 | –
Cn1nc(-c2ccccn2)c2c1NCCS[C@H]2c1ccc(Br)cc1Cl (single isomer, unassigned) [M.2, 4-(4-bromo-2-chlorophenyl)-1-methyl-3-(pyridin-2-yl)-4,6,7,8-tetrahydro-1H-pyrazolo[3,4-e][1,4]thiazepine] | < 50 | < 100 | –
Cc1ccc(Br)cc1C1SC(C)(C)C=Nc2c1c(C1CC1)nn2C (centres unmarked) [D.54] | < 50 | 1000 to 10000 | –
Cn1nc(-c2ccccn2)c2c1NCCSC2c1ccc(Cl)cc1Br (centres unmarked) [D.37, 4-(2-bromo-4-chloro-phenyl)-1-methyl-3-(2-pyridyl)-4,6,7,8-tetrahydropyrazolo[3,4-e][1,4]thiazepine] | > 50 | < 100 | –
